Experimental data taken from patent US20230263758A1, “COMPOSITIONS OF EDTA HAVING ACTIVITY AGAINST PLANKTONIC AND BIOFILM CELLS OF CLINICALLY RELEVANT PATHOGENS” (SterileCare Inc., priority 2022, published 2023).

Assays:
[1] = tested on: C. albicans ON47; assay: Checkerboard FBEC index, 48-h biofilm; type: cell-based, Candida albicans; settings: EDTA + chlorhexidine HCl
Experimental: In step (4), microtiter plates are incubated at 37° C. for 24 h. then (6), after incubation, the bacterial and fungal cells were dislodged from the pegs into the recovery medium described above.
Three 10-μL aliquots, for a total of 30 μL from each well of recovery medium, were spotted on MH agar plates and incubated for 24 h at 37° C.

[2] = tested on: Stenotrophomonas maltophilia ON17; assay: MBC/MFC determination; type: cell-based; settings: S. maltophilia ON17; agent alone
Experimental: (§1) An assay was made using a minimum inhibitory concentration (MIC) and minimum bactericidal concentration (MBC) and minimum fungicidal concentration (MFC) determination. The MIC was determined by the micro broth dilution method in 96-well plates. Serial two-fold dilutions of tetrasodium EDTA (from 2% to 0.015%), ethanol (from 50% to 0.1%) and chlorhexidine HCl (from 100 μg/mL to 0.025 μg/mL) were prepared in MH broth with a final volume of 90 μL per well. A 10 μL containing 1×10^5 bacterial cells or 2×10^3 fungal cells were added to each well. The inoculated plates were covered with a lid, sealed with Parafilm, and incubated for 24 h at 37° C. with slight rocking on a tilting platform shaker. After incubation, the optical density at 600 nm (OD 600) of the cultures in each well was measured using an xMark™ Microplate Absorbance Spectrophotometer (Bio-Rad). […] MBCs and MFCs were determined by transferring 100 μL from each well with no apparent growth onto appropriate agar plates, followed by incubation for 24 h at 37° C.

[3] = tested on: Escherichia coli ON29; assay: MBC/MFC determination; type: cell-based; settings: E. coli ON29; agent alone
Experimental: as §1

[4] = tested on: Pseudomonas aeruginosa SK1; assay: MBC/MFC determination; type: cell-based; settings: P. aeruginosa SK1; agent alone
Experimental: as §1

[5] = tested on: Staphylococcus aureus ON89; assay: MBC/MFC determination; type: cell-based; settings: S. aureus ON89; agent alone
Experimental: as §1

Compound: O=C([O-])CN(CCN(CC(=O)[O-])CC(=O)[O-])CC(=O)[O-].[Na+].[Na+].[Na+].[Na+] [EDTA, tetrasodium EDTA]
- Biofilm eradication concentration in combination (FBEC) [1]: 0.031 % w/v
- MBC/MFC [2]: 1 % w/v
- MBC/MFC [3]: 1 % w/v
- MBC/MFC [4]: 1 % w/v
- MBC/MFC [5]: 1 % w/v
